pIC50: −log10 of the molar value. Counter-ions that a name gives are not always drawn. Like-named read-outs stand apart in the source and are kept apart here.
What was measured:
[1] = biological target: muscarinic acetylcholine receptors; test: 3H-QNB (quinuclidinyl benzilate) displacement, rat cerebral membranes; format: binding
[2] = biological target: T1, nicotinic acetylcholine receptor (Rattus norvegicus, UniProt P09483+P12390); test: 3H-nicotine binding/displacement, rat cerebral membranes
T1 construct: Synaptic membranes were prepared by homogenizing the cortical tissue; from tissue; host or cells: cerebral cortex synaptic membranes of male Sprague-Dawley rats
T1 sequence (P09483 31-630): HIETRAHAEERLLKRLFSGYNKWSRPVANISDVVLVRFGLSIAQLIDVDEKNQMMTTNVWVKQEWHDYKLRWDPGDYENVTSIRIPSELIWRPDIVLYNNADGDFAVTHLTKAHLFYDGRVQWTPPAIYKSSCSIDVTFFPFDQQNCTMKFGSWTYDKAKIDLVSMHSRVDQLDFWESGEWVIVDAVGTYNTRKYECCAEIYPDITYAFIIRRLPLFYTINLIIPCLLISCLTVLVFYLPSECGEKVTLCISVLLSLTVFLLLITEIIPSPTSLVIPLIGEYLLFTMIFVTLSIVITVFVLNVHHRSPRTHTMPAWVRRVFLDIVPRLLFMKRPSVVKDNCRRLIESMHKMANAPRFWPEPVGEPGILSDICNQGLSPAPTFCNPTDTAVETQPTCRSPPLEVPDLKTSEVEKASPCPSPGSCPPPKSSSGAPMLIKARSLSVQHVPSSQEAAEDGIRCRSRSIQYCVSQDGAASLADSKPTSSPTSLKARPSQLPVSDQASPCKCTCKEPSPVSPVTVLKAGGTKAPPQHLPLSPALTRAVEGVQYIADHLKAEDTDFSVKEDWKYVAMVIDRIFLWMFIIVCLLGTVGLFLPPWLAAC
T1 sequence (P12390 26-500 limits assumed): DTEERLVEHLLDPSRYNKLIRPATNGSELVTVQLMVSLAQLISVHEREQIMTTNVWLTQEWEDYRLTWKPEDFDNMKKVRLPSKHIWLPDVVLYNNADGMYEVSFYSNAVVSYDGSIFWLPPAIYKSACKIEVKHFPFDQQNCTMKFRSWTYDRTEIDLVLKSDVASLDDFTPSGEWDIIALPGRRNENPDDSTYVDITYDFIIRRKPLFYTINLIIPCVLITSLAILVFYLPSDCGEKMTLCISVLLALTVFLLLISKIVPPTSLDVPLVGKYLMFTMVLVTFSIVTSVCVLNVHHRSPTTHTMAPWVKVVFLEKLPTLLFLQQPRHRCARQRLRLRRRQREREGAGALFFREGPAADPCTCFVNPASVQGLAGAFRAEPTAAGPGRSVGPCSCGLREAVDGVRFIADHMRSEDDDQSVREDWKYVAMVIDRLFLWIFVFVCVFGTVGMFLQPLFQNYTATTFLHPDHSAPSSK
Description: ^3 H-Nicotine binding to rat cerebral membranes was performed according to modifications of the method of Flyn and Mash (J. Neurochem. 47:1948 (1986)). ^3 H-Nicotine (80 ci/mmol; New England Nuclear Corporation, Boston, Mass.) was used as the ligand for nicotinic acetylcholine receptor binding assays. All other reagents were purchased from the Sigma Chemical Co. (St. Louis, Mo.).
Male Sprague-Dawley rats (250-400 gm) were sacrificed by decapitation, the brains removed and the cerebral cortex dissected on ice. Synaptic membranes were prepared by homogenizing the cortical tissue in 20 volumes of ice-cold modified Tris buffer (50 mM Tris pH 7.4, 120 mM NaCl, 5 mM KCl, 2 mM EDTA, 1 mM PMSF) with a polytron (20 sec at setting 5-6) followed by centrifugation (15 min at 25,000×g) at 4° C. The resultant pellet was rehomogenized and centrifuged twice. The final pellet was resuspended in ice-cold assay buffer (50 mM Tris pH 7.4, 120 mM NaCl, 5 mM KCl, 2 mM CaCl2, 1 MM MgCl2) at a concentration of membrane equivalent to 1 gm wet weight cortex per 10 ml buffer. After protein determination the final membrane preparation was diluted with buffer to 3 mg protein/ml. This membrane preparation was used in either the fresh state or frozen (-70° C.) then thawed.
The binding assay is performed manually using 96-well plates, or using a Biomek automated work station (Beckman Instrument Co.). ^3 H-Nicotine was diluted in assay buffer to give a final concentration of 1.9 nM. The Biomek automated work station was programmed to automatically transfer 750 μl of assay buffer with ^3 H-nicotine, 230 μl of membrane preparation and 20 μl of solution containing the compound of interest in assay buffer, DMSO, ethanol:DMSO (1:1) or appropriate vehicle to the 96-well plate. Atropine was added to the incubation buffer at a final concentration of 3 μM to block binding to muscarinic acetylcholine receptor sites. The plates were maintained on ice for 60 min and the tissue-bound radioactivity was separated from the free by rapid filtration in a Brandel Harvester onto GF/C filters presoaked in 0.5% polyethyleneimine for at least 2 hr. The filters were washed with 4×2 ml of ice-cold assay buffer and filters were transferred to vials to which 4 ml of scintillation cocktail was added. The radioactivity was measured in a LS-6500 Beckman Liquid Scintillation Counter in an autodpm mode. Data were analyzed by log-logit transformation or non-linear regression analysis (e.g., employing GraphPad Prism, available from GraphPad Software, San Diego, Calif.) to give IC50 values. Non-specific binding was defined by 10 μM cytisine.

[3] = test system: rat striatal slices (3H-dopamine release); format: cell-based
Description: (§1) Measurement of ^3 H-dopamine release from rat striatal slices was performed according to the method of Sacaan et al. (J. Neurochem. 59:245 (1992)). Male Sprague-Dawley rats (250-300 g) were decapitated and the striata or olfactory tubercles dissected quickly on a cold glass surface. The tissue was chopped to a thickness of 300 μm with a McIlwain tissue chopper. After chopping again at right angles the tissue was dispersed and incubated for 10 min. at 37° C. in oxygenated Kreb's buffer. ^3 H-Dopamine (40 Ci/mmol, NEN- Dupont, Boston, Mass.) was added (50 nM) and the tissue was incubated for 30 min. in Kreb's buffer containing 10 μM pargyline and 0.5 mM ascorbic acid. Aliquots of the minced tissue were then transferred to chambers of a Brandel Superfusion system in which the tissue was supported on Whatman GF/B filter discs. The tissue was then superfused with buffer at a constant flow rate of 0.3 ml/min by means of a Brandel peristaltic pump. The perfusate was collected in plastic scintillation vials in 3-min fractions, and the radioactivity was estimated by scintillation spectrophotometry. The superfusate for the first 120 min was discarded. After two baseline fractions had been collected, the superfusion buffer was switched to fresh buffer with or without compound of interest. At the end of the experiment the filter and the tissue were removed, and the radiolabeled neurotransmitter content was estimated after extraction into scintillation fluid. The fractional effiux of radiolabeled neurotransmitter was estimated as the amount of radioactivity in the perfusate fraction relative to the total amount in the tissue.
(§2) The results of studies of the effects of an invention compound (as compared to the effect of nicotine) on the release of neurotransmitters from rat brain slices are presented in Table II. The results presented in the Table are expressed as the percent fractional release.

[4] = test system: rat olfactory tubercles (3H-dopamine release); format: cell-based
Description: as §1, §2

[5] = test system: rat thalamus slices (3H-norepinephrine release); format: cell-based
Description: as §1
(§3) Following essentially the same procedure as set forth in the preceding paragraph, the amount of ^3 H-norepinephrine released from rat hippocampus, thalamus and prefrontal cortex slices superfused with buffer containing (or lacking) compounds of interest was also measured.
as §2

[6] = test system: rat prefrontal cortex slices (3H-norepinephrine release); format: cell-based
Description: as §1, §3, §2

[7] = test system: rat hippocampus slices (3H-norepinephrine release); format: cell-based
Description: as §1, §3, §2

[8] = displacement of 60 pM 3H-QNB, rat cerebral membranes
[9] = displacement of 1.9 nM 3H-nicotine, rat cerebral membranes, 3 μM atropine, read-out: IC50, Nicotine
[10] = rat striatum slices, compound concentration not given
[11] = rat olfactory tubercles, compound concentration not given
[12] = rat thalamus slices, compound concentration not given
[13] = rat prefrontal cortex slices, compound concentration not given
[14] = rat hippocampus slices, compound concentration not given

Oc1ccc(-c2cncc(CN3CCCC3)c2)cc1Cl [5-(4-Hydroxy-3-chlorophenyl)-3-(N-pyrrolidinomethyl)pyridine]
pIC50 [1, 8]: < 5.00 | pIC50 [2, 9]: 7.37 | 3H-Dopamine, Striatum, percent fractional release [3, 10]: 6.00% | 3H-Dopamine, Olfactory Tubercles, percent fractional release [4, 11]: 8.75% | 3H-Norepinephrine, Thalamus, percent fractional release [5, 12]: 1.44% | 3H-Norepinephrine, Prefrontal Cortex, percent fractional release [6, 13]: 1.82% | 3H-Norepinephrine, Hippocampus, percent fractional release [7, 14]: 1.91%

Oc1ccc(-c2cncc(CN3CCCC3)c2)cc1 [5-(4-hydroxyphenyl)-3-(N-pyrrolidinomethyl)pyridine]
pIC50 [1, 8]: < 5.00 | pIC50 [2, 9]: 7.09 | 3H-Dopamine, Striatum, percent fractional release [3, 10]: 4.32% | 3H-Dopamine, Olfactory Tubercles, percent fractional release [4, 11]: 6.12% | 3H-Norepinephrine, Thalamus, percent fractional release [5, 12]: 2.36% | 3H-Norepinephrine, Prefrontal Cortex, percent fractional release [6, 13]: 1.24% | 3H-Norepinephrine, Hippocampus, percent fractional release [7, 14]: 1.06%

c1ccc(-c2cncc(CN3CCC3)c2)cc1 [5-Phenyl-3-(N-azetidinomethyl)pyridine fumarate]
pIC50 [1, 8]: 5.22 | pIC50 [2, 9]: 5.92

c1ccc(-c2cncc(CN3CCCC3)c2)cc1 [5-Phenyl-3-(N-pyrrolidinomethyl)pyridine]
pIC50 [1, 8]: 4.95 | pIC50 [2, 9]: 6.28 | 3H-Dopamine, Striatum, percent fractional release [3, 10]: 2.48% | 3H-Dopamine, Olfactory Tubercles, percent fractional release [4, 11]: 3.68% | 3H-Norepinephrine, Thalamus, percent fractional release [5, 12]: 1.42% | 3H-Norepinephrine, Prefrontal Cortex, percent fractional release [6, 13]: 1.43% | 3H-Norepinephrine, Hippocampus, percent fractional release [7, 14]: 0.74%

C#Cc1cncc(CN2CCCC2)c1 [5-ethynyl-3-(N-pyrrolidinomethyl)pyridine]
pIC50 [1]: < 4.00 | pIC50 [2]: 7.39 | 3H-Dopamine, Striatum, percent fractional release [3, 10]: 2.09% | 3H-Dopamine, Olfactory Tubercles, percent fractional release [4, 11]: 0.91% | 3H-Norepinephrine, Thalamus, percent fractional release [5, 12]: 0.67% | 3H-Norepinephrine, Prefrontal Cortex, percent fractional release [6, 13]: 0.84% | 3H-Norepinephrine, Hippocampus, percent fractional release [7, 14]: 0.97%

c1cncc(CNC2CC2)c1 [N-Cyclopropyl-3-picolylamine]
pIC50 [1, 8]: < 4.00 | pIC50 [2, 9]: 4.40

CN(Cc1cccnc1)C1CC1 [N-Methyl-N-cyclopropyl-3-picolylamine]
pIC50 [1, 8]: < 4.00 | pIC50 [2, 9]: 4.80

CN(CCCc1ccccc1)Cc1cccnc1 [N-Methyl-N-phenylpropyl-3-picolylamine]
pIC50 [1, 8]: 4.44 | pIC50 [2, 9]: 4.47

c1ccc(CCCNCc2cccnc2)cc1 [N-Phenylpropyl-3-picolylamine]
pIC50 [1, 8]: 4.54 | pIC50 [2, 9]: 4.70

CN1CCCC1c1cccnc1 (stereo not drawn) [Nicotine, reference compound]
3H-Dopamine, Striatum, percent fractional release [3]: 2.3 ± 0.7 | 3H-Dopamine, Olfactory Tubercles, percent fractional release [4]: 2.7 ± 0.4 | 3H-Norepinephrine, Thalamus, percent fractional release [5]: 1.7 | 3H-Norepinephrine, Prefrontal Cortex, percent fractional release [6]: 2.2 ± 0.2 | 3H-Norepinephrine, Hippocampus, percent fractional release [7]: 8.2 ± 1.5

CC(c1cccnc1)N(C)C (stereo not drawn) [α-Methyl-N,N-dimethyl-3-picolylamine]
displacement of ligand with 100 μM of compound (Quinuclidinyl benzilate) ([1]; 100 μM compound, 3H-QNB, rat cerebral membranes): Less than 20% | pIC50 [2, 9]: 5.72

CC(NC1CC1)c1cccnc1 (stereo not drawn) [α-Methyl-N-cyclopropyl-3-picolylamine]
pIC50 [1, 8]: < 4.00 | pIC50 [2, 9]: < 4.00

CC(C)NC(C)c1cccnc1 (stereo not drawn) [α-Methyl-N-isopropyl-3-picolylamine]
pIC50 [1, 8]: < 4.00 | pIC50 [2, 9]: 4.72

CNC(C)c1cccnc1 (stereo not drawn) [α-Methyl-N-methyl-3-picolylamine]
pIC50 [1, 8]: < 4.00 | pIC50 [2, 9]: 5.44
